In patent US20040254162A1, “Oxazolidinone derivatives as antimicrobials” (priority 2001, published 2004):
Converted amounts (≈) assume the structure as drawn.

Columns and labels:
Test in all cases: MIC, agar incorporation method
S. aureus ATCC 25923 = conditions: agar incorporation
MRSA 15187 = conditions: agar incorporation
MRSA 33 = conditions: agar incorporation
Ent. faecalis ATCC 29212 = conditions: agar incorporation
VRE 6A (Ent. faecium 6A) = conditions: agar incorporation
Strep. pyog. ATCC 19615 = conditions: agar incorporation
Strep. pne. ATCC 6303 = conditions: agar incorporation
S. pneum AB 34 = conditions: agar incorporation
MRSA 562 = conditions: agar incorporation; Table 1

Row | MIC S. aureus 25923 (S. aureus ATCC 25923) | MIC MRSA 15187 (MRSA 15187) | MIC MRSA 33 (MRSA 33) | MIC E. faecalis 29212 (Ent. faecalis ATCC 29212) | MIC VRE 6A (VRE 6A (Ent. faecium 6A)) | MIC S. pyogenes 19615 (Strep. pyog. ATCC 19615) | MIC S. pneum 6303 (Strep. pne. ATCC 6303) | MIC S. pneum AB 34 (S. pneum AB 34) | MIC MRSA 562 (MRSA 562) | Compound
1 | 2 µg/mL (≈ 4.65 µM) | 2 µg/mL (≈ 4.65 µM) | 4 µg/mL (≈ 9.29 µM) | 2 µg/mL (≈ 4.65 µM) | 2 µg/mL (≈ 4.65 µM) | 1 µg/mL (≈ 2.32 µM) | 2 µg/mL (≈ 4.65 µM) | 1 µg/mL (≈ 2.32 µM) |  | CC(=O)NC[C@H]1CN(c2ccc(N3CCN(C(=O)c4ccco4)CC3)c(F)c2)C(=O)O1 [Compound No. 01, (S)-N-[[3-[3-Fluoro-4-[N-1-[4-(2-furoyl)piperazinyl]]phenyl]-2-oxo-5-oxazolidinyl]methyl]acetamide]
2 | 1 µg/mL (≈ 2.25 µM) | 2 µg/mL (≈ 4.5 µM) | 2 µg/mL (≈ 4.5 µM) | 8 µg/mL (≈ 18 µM) | 8 µg/mL (≈ 18 µM) | 8 µg/mL (≈ 18 µM) | 4 µg/mL (≈ 9 µM) | 8 µg/mL (≈ 18 µM) | 1 µg/mL (≈ 2.25 µM) | CC(=O)NC[C@H]1CN(c2ccc(N3CCN(Cc4ccc(C=O)o4)CC3)c(F)c2)C(=O)O1 [Compound No. 02, (S)-N-[[3-[3-Fluoro-4-[N-1[4-{2-furyl(5-formyl)methyl}]piperazinyl]phenyl]-2-oxo-5-oxazolidinyl]methyl]acetamide]
3 | 16 µg/mL (≈ 33.4 µM) | 4 µg/mL (≈ 8.35 µM) | 4 µg/mL (≈ 8.35 µM) | 8 µg/mL (≈ 16.7 µM) | 8 µg/mL (≈ 16.7 µM) | 4 µg/mL (≈ 8.35 µM) | 4 µg/mL (≈ 8.35 µM) | 4 µg/mL (≈ 8.35 µM) |  | CC(=O)NC[C@H]1CN(c2ccc(N3CCN(C(=O)c4ccc(CCl)o4)CC3)c(F)c2)C(=O)O1 [Compound No. 05, (S)-N-[[3-Fluoro-4-[N-1[4-(5-chloromethyl-2-furoyl)piperazinyl]phenyl]-2-oxo-5-oxazolidinyl]methyl]acetamide]
4 | 8 µg/mL (≈ 17.1 µM) | 4 µg/mL (≈ 8.57 µM) | 4 µg/mL (≈ 8.57 µM) | 8 µg/mL (≈ 17.1 µM) | 4 µg/mL (≈ 8.57 µM) | 1 µg/mL (≈ 2.14 µM) | 4 µg/mL (≈ 8.57 µM) | 8 µg/mL (≈ 17.1 µM) |  | CC(=O)NC[C@H]1CN(c2ccc(N3CCN(Cc4ccc(Cl)s4)CC3)c(F)c2)C(=O)O1 [Compound No. 10, (S)-N[[3-[3-Fluoro-4-[N-1[4-{2-thienyl(5-chloro)methyl}]piperazinyl]phenyl]2-oxo-5-oxazolidinyl]methyl]acetamide]
5 | 8 µg/mL (≈ 18.5 µM) | 8 µg/mL (≈ 18.5 µM) | 8 µg/mL (≈ 18.5 µM) | 8 µg/mL (≈ 18.5 µM) | 8 µg/mL (≈ 18.5 µM) | 4 µg/mL (≈ 9.25 µM) | 8 µg/mL (≈ 18.5 µM) | 8 µg/mL (≈ 18.5 µM) | 8 µg/mL (≈ 18.5 µM) | CC(=O)NC[C@H]1CN(c2ccc(N3CCN(Cc4cccs4)CC3)c(F)c2)C(=O)O1 [Compound No. 12, (S)-N-[[3-[3-Fluoro-4-[N-1[4-(2-thienylmethyl)]piperazinyl]phenyl]-2-oxo-5-oxazolidinyl]methyl]acetamide]
6 | 4 µg/mL (≈ 7.82 µM) | 2 µg/mL (≈ 3.91 µM) | 2 µg/mL (≈ 3.91 µM) | 2 µg/mL (≈ 3.91 µM) | 2 µg/mL (≈ 3.91 µM) | 2 µg/mL (≈ 3.91 µM) | 4 µg/mL (≈ 7.82 µM) | 4 µg/mL (≈ 7.82 µM) | 2 µg/mL (≈ 3.91 µM) | CC(=O)NC[C@H]1CN(c2ccc(N3CCN(Cc4cc(Br)cs4)CC3)c(F)c2)C(=O)O1 [Compound No. 14, (S)-N-[[3-[3-Fluoro-4-[N-1[4-{2-thienyl(4-bromo)methyl}]piperazinyl]phenyl]-2-oxo-5-oxazolidinyl]methyl]acetamide]
7 | 8 µg/mL (≈ 16.8 µM) | 8 µg/mL (≈ 16.8 µM) | 8 µg/mL (≈ 16.8 µM) | 8 µg/mL (≈ 16.8 µM) | 8 µg/mL (≈ 16.8 µM) | 1 µg/mL (≈ 2.09 µM) | 8 µg/mL (≈ 16.8 µM) | 8 µg/mL (≈ 16.8 µM) |  | CC(=O)NC[C@H]1CN(c2ccc(N3CCN(Cc4ccc([N+](=O)[O-])s4)CC3)c(F)c2)C(=O)O1 [Compound No. 23, (S)-N[[3-[3-Fluoro-4-[N-1[4-(2-thienyl(5-nitro)methyl}]piperazinyl]phenyl]2-oxo-5-oxazolidinyl]methyl]acetamide]
8 | 8 µg/mL (≈ 17.5 µM) | 8 µg/mL (≈ 17.5 µM) | 8 µg/mL (≈ 17.5 µM) | 8 µg/mL (≈ 17.5 µM) | 8 µg/mL (≈ 17.5 µM) | 1 µg/mL (≈ 2.19 µM) | 4 µg/mL (≈ 8.76 µM) | 4 µg/mL (≈ 8.76 µM) |  | CC(=O)NC[C@H]1CN(c2ccc(N3CC4C(C3)C4N(C)C(=O)c3ccoc3)c(F)c2)C(=O)O1 (stereo partly drawn) [Compound No. 32, (S)-N-[[3-[3-Fluoro[4-[3-(1α,5α,6α)-6-[N-(3-furoyl)-N-methyl]amino]-3-azabicyclo-[3.1.0]hexane]phenyl]-2-oxo-5-oxazolidinyl]methyl]acetamide]
9 | 4 µg/mL (≈ 7.47 µM) | 4 µg/mL (≈ 7.47 µM) | 4 µg/mL (≈ 7.47 µM) | 4 µg/mL (≈ 7.47 µM) | 4 µg/mL (≈ 7.47 µM) | 0.5 µg/mL (≈ 0.934 µM) | 8 µg/mL (≈ 14.9 µM) | 4 µg/mL (≈ 7.47 µM) |  | CC(=O)NC[C@H]1CN(c2ccc(N3C[C@@H]4[C@H](C3)[C@H]4N(C)C(=O)c3ccc(Br)o3)c(F)c2)C(=O)O1 [Compound No. 33, (S)-N-[[3-[3-Fluoro[4-[3-(1α,5α,6α)-6-[N-(5-bromo-2-furoyl)-N-methyl]amino]-3-azabicyclo-[3.1.0.]hexane]phenyl]-2-oxo-5-oxazolidinyl]methyl]acetamide]
10 | 2 µg/mL (≈ 3.96 µM) | 1 µg/mL (≈ 1.98 µM) | 1 µg/mL (≈ 1.98 µM) | 4 µg/mL (≈ 7.91 µM) | 4 µg/mL (≈ 7.91 µM) | 0.5 µg/mL (≈ 0.989 µM) |  | 2 µg/mL (≈ 3.96 µM) | 1 µg/mL (≈ 1.98 µM) | CC(=O)NC[C@H]1CN(c2ccc(N3CCC(N(C)Cc4ccc([N+](=O)[O-])s4)CC3)c(F)c2)C(=O)O1 [Compound No. 51, (S)-N-[[3-[4-[4-(N-methyl-N-2-thienyl(5-nitro)methyl)aminopiperidine-1-yl]-3-fluorophenyl]-2-oxo-oxazolidin-5-yl]methyl]acetamide]
11 | 2 µg/mL (≈ 4.35 µM) | 2 µg/mL (≈ 4.35 µM) | 2 µg/mL (≈ 4.35 µM) | 8 µg/mL (≈ 17.4 µM) | 16 µg/mL (≈ 34.8 µM) | 4 µg/mL (≈ 8.71 µM) | 8 µg/mL (≈ 17.4 µM) | 8 µg/mL (≈ 17.4 µM) |  | CC(=O)NC[C@H]1CN(c2ccc(N3CCN(Cc4ccc(C=NO)o4)CC3)c(F)c2)C(=O)O1 [Compound No. 60, (S)-N-[[3-[3-Fluoro-4-[N-1-[4-(2-furyl-(5-aldoxime)methyl}]piperazinyl]phenyl]-2-oxo-5-oxazolidinyl]methyl]acetamide]
12 | 8 µg/mL (≈ 12.3 µM) | 8 µg/mL (≈ 12.3 µM) | 8 µg/mL (≈ 12.3 µM) | 8 µg/mL (≈ 12.3 µM) | 8 µg/mL (≈ 12.3 µM) | 8 µg/mL (≈ 12.3 µM) | 8 µg/mL (≈ 12.3 µM) | 8 µg/mL (≈ 12.3 µM) |  | COC(=O)Cc1ccc(NC(=O)ON=Cc2ccc(CN3CCN(c4ccc(N5C[C@H](CNC(C)=O)OC5=O)cc4F)CC3)o2)cc1 [Compound No. 61]
13 | 8 µg/mL (≈ 17 µM) | 4 µg/mL (≈ 8.5 µM) | 4 µg/mL (≈ 8.5 µM) | 8 µg/mL (≈ 17 µM) | 8 µg/mL (≈ 17 µM) | 0.25 µg/mL (≈ 0.531 µM) | 4 µg/mL (≈ 8.5 µM) | 4 µg/mL (≈ 8.5 µM) |  | CC(=O)NC[C@H]1CN(c2ccc(N3CC4C(C3)C4N(C)Cc3ccc(C=O)o3)c(F)c2)C(=O)O1 (stereo partly drawn) [Compound No. 72, (S)-N-[[3-[3-Fluoro[4-[3-(1α,5α,6α)-6-[N-(5-formyl-2-furylmethyl)-N-methyl]-amino]-3-azabicyclo-[3.1.0]hexane]phenyl]-2-oxo-5-oxazolidinyl]methyl]acetamide]
14 | 8 µg/mL (≈ 16.9 µM) | 8 µg/mL (≈ 16.9 µM) | 8 µg/mL (≈ 16.9 µM) | 8 µg/mL (≈ 16.9 µM) | 8 µg/mL (≈ 16.9 µM) | 1 µg/mL (≈ 2.12 µM) | 4 µg/mL (≈ 8.46 µM) | 8 µg/mL (≈ 16.9 µM) |  | CC(=O)NC[C@H]1CN(c2ccc(N3CC4C(C3)C4N(C)C(=O)c3ccsc3)c(F)c2)C(=O)O1 (stereo partly drawn) [Compound No. 73, (S)-N-[[3-[3-Fluoro[4-[3-(1α,5α,6α)-6-[N-(3-thienoyl)-N-methyl]amino]-3-aza-bicyclo[3.1.0]hexane]phenyl]-2-oxo-5-oxazolidinyl]methyl]acetamide]

Row | Compound | MIC S. aureus 25923 (S. aureus ATCC 25923) | MIC MRSA 15187 (MRSA 15187) | MIC MRSA 33 (MRSA 33) | MIC E. faecalis 29212 (Ent. faecalis ATCC 29212) | MIC VRE 6A (VRE 6A (Ent. faecium 6A)) | MIC S. pyogenes 19615 (Strep. pyog. ATCC 19615) | MIC S. pneum 6303 (Strep. pne. ATCC 6303) | MIC S. pneum AB 34 (S. pneum AB 34) | MIC MRSA 562 (MRSA 562)
15 | CC(=O)NC[C@H]1CN(c2ccc(N3CCN(Cc4ccc([N+](=O)[O-])o4)CC3)c(F)c2)C(=O)O1.O=C(O)CC(O)(CC(=O)O)C(=O)O [Compound No. 17] | 2 µg/mL | 2 µg/mL | 2 µg/mL | 2 µg/mL | 4 µg/mL | 1 µg/mL | 2 µg/mL | 1 µg/mL | 
16 | CC(=O)NC[C@H]1CN(c2ccc(N3CCN(Cc4cccn4C)CC3)c(F)c2)C(=O)O1 [Compound No. 22, (S)-N[[3-[3-Fluoro-4-[N-1[4-{2-pyrrole(1-methyl)methyl}]piperazinyl]phenyl]2-oxo-5-oxazolidinyl]methyl]acetamide] | 2 µg/mL (≈ 4.66 µM) | 8 µg/mL (≈ 18.6 µM) | 8 µg/mL (≈ 18.6 µM) | 8 µg/mL (≈ 18.6 µM) | 8 µg/mL (≈ 18.6 µM) | 1 µg/mL (≈ 2.33 µM) | 1 µg/mL (≈ 2.33 µM) | 1 µg/mL (≈ 2.33 µM) | 4 µg/mL (≈ 9.31 µM)
